According to ChEMBL document CHEMBL1201862, “PubChem BioAssay data set” (2004):
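Briefly, cells in 96-well plates were exposed to five compound concentrations for 48 h, and endpoints were estimated by linear interpolation. The concentration for 50% growth inhibition is given as GI50.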 The source made the active and inactive calls. Rule as the data show it: active = GI50 up to about 1.1 µM and inactive = higher.

What was measured:
Experiment in all cases: NCI anticancer screen, dose series, 48 h
[1] = test system: EKVX
[2] = test system: HCT-116
[3] = test system: HT-29
[4] = test system: Hs-578T
[5] = test system: IGROV-1
[6] = test system: MDA-MB-435
[7] = test system: MOLT-4
[8] = test system: Malme-3M
[9] = test system: OVCAR-3
[10] = test system: OVCAR-4
[11] = test system: PC-3
[12] = test system: SF-268
[13] = test system: SK-MEL-5
[14] = test system: SK-OV-3
[15] = test system: SN12C
[16] = test system: T47D
[17] = test system: TK-10
[18] = test system: U-251
[19] = test system: UO-31

Measured: GI50

Cn1cc(NC(=O)Nc2cc(C(=O)Nc3cc(C(=O)Nc4ccc5cc(S(=O)(=O)O)cc(S(=O)(=O)O)c5c4)n(C)c3)n(C)c2)cc1C(=O)Nc1cc(C(=O)Nc2ccc3cc(S(=O)(=O)O)cc(S(=O)(=O)O)c3c2)n(C)c1
inactive: [1] 38.5 µM | [2] > 100 µM | [3] > 100 µM | [4] > 100 µM | [5] > 100 µM | [6] > 100 µM | [7] > 100 µM | [8] > 100 µM | [9] 84.3 µM | [10] > 100 µM | [11] > 100 µM | [12] > 100 µM | [13] > 100 µM | [14] > 100 µM | [15] > 100 µM | [16] > 100 µM | [17] 83 µM | [18] > 100 µM | [19] > 100 µM

Cc1ccc(S(=O)(=O)N2CCN(S(=O)(=O)c3ccc(C)cc3)CCN(S(=O)(=O)c3ccc(C)cc3)Cc3cc(C#N)c(C#N)cc3CN(S(=O)(=O)c3ccc(C)cc3)CC2)cc1
inactive: [1] > 100 µM | [2] > 100 µM | [3] > 100 µM | [4] > 100 µM | [5] > 100 µM | [6] > 100 µM | [7] > 100 µM | [8] 52.4 µM | [9] > 100 µM | [10] > 100 µM | [11] 39.4 µM | [12] > 100 µM | [13] > 100 µM | [14] > 100 µM | [15] > 100 µM | [16] > 100 µM | [17] 86.7 µM | [18] > 100 µM | [19] > 100 µM

COc1cc2c(c(O)c1OC)-c1c(cc(OC)c(OC)c1OC)CC(C)C(C)C2 (stereo not given) [GOMISIN K3]
inactive: [1] 47.3 µM | [2] 34.7 µM | [3] 40.6 µM | [4] 69.8 µM | [5] 51.1 µM | [6] 50 µM | [7] 16.6 µM | [8] 68.7 µM | [9] 47.1 µM | [10] 30.3 µM | [11] 28.6 µM | [12] 78 µM | [13] 35.6 µM | [14] 82.4 µM | [15] 47.8 µM | [16] 30.4 µM | [17] 26.5 µM | [18] 49.9 µM | [19] 29.4 µM

Cc1ccc(-c2cc(-c3cc(-c4ccc(C)cc4C)[nH]n3)[nH]n2)c(C)c1
inactive: [1] 20.7 µM | [2] 16 µM | [3] 10.8 µM | [4] 18.1 µM | [5] 13.7 µM | [6] 14.7 µM | [7] 10.1 µM | [8] 11.1 µM | [9] 12.2 µM | [10] 8.71 µM | [11] 15.1 µM | [12] 12.5 µM | [13] 16.4 µM | [14] 15.2 µM | [15] 15.3 µM | [16] 15 µM | [17] 15.6 µM | [18] 13.5 µM | [19] 23 µM

Cc1c(-c2nc3ccccc3[nH]2)c(=O)n(-c2ccccc2)n1C
inactive: [1] > 100 µM | [2] > 100 µM | [3] > 100 µM | [4] > 100 µM | [5] > 100 µM | [6] > 100 µM | [7] > 100 µM | [8] > 100 µM | [9] > 100 µM | [10] > 100 µM | [11] > 100 µM | [12] > 100 µM | [13] > 100 µM | [14] > 100 µM | [15] > 100 µM | [16] > 100 µM | [17] > 100 µM | [18] > 100 µM | [19] > 100 µM

C[n+]1c(/C=C/c2ccc(O)c3ncccc23)[se]c2ccccc21
inactive: [1] 4.25 µM | [2] 2.58 µM | [3] 4.11 µM | [4] 15.7 µM | [5] 3 µM | [6] 6.34 µM | [7] 1.94 µM | [8] 4.01 µM | [9] 1.57 µM | [10] 4.2 µM | [11] 2.92 µM | [12] 4.91 µM | [13] 7.76 µM | [14] 5.96 µM | [15] 2.99 µM | [16] 3.2 µM | [17] 3.1 µM | [18] 2.88 µM | [19] 2.71 µM

Nc1ccc2nc3n(c2c1)C(c1c(F)cccc1F)SC3 (stereo not given)
inactive: [1] > 100 µM | [2] > 100 µM | [3] > 100 µM | [4] > 100 µM | [5] > 100 µM | [6] > 100 µM | [7] 38.1 µM | [8] > 100 µM | [9] > 100 µM | [10] > 100 µM | [11] > 100 µM | [12] > 100 µM | [13] 41 µM | [14] > 100 µM | [15] > 100 µM | [16] > 100 µM | [17] > 100 µM | [18] > 100 µM | [19] 72.6 µM

NCCCN1CCN(CC(=O)O)CCN(CCCN)CCN(CC(=O)O)CC1
inactive: [1] > 77.6 µM | [2] > 100 µM | [3] > 19.9 µM | [4] > 100 µM | [5] 43.9 µM | [6] > 100 µM | [7] 7.14 µM | [8] 25.5 µM | [9] > 31.8 µM | [10] > 100 µM | [11] > 45.1 µM | [12] > 100 µM | [13] 4.5 µM | [14] > 92 µM | [15] > 100 µM | [16] > 100 µM | [17] > 100 µM | [18] > 100 µM | [19] > 34.3 µM

Cc1cn(CCC(N)C(=O)O)c(=O)[nH]c1=O (stereo not given)
inactive: [1] > 100 µM | [2] > 100 µM | [3] > 100 µM | [4] > 100 µM | [5] > 100 µM | [6] > 100 µM | [7] > 100 µM | [8] > 100 µM | [9] > 100 µM | [10] > 100 µM | [11] > 100 µM | [12] > 100 µM | [13] > 100 µM | [14] > 100 µM | [15] > 100 µM | [16] > 100 µM | [17] > 100 µM | [18] > 100 µM | [19] > 100 µM

NNC1=Nc2ccc(Cl)cc2C(=S)N2CSCC12 (stereo not given)
inactive: [1] > 100 µM | [2] > 100 µM | [3] > 100 µM | [4] > 100 µM | [5] > 100 µM | [6] > 100 µM | [7] > 100 µM | [8] > 100 µM | [9] > 100 µM | [10] > 100 µM | [11] > 100 µM | [12] > 100 µM | [13] > 100 µM | [14] > 100 µM | [15] > 100 µM | [16] > 100 µM | [17] > 100 µM | [18] > 100 µM | [19] > 100 µM
